For assay [1], the target named is Aldo-keto reductase family 1 member B1 (Homo sapiens, UniProt P15121). Kind of assay: Inhibition of ALR2 (unknown origin).
For assay [2], the target named is Aldo-keto reductase family 1 member A1 (Rattus norvegicus, UniProt P51635). Nature of the assay: Inhibition of rat kidney ALR1 using D-glucuronate by measuring NADPH consumption by spectrophotometric analysis. It is filed as tissue-based.
For another assay, the species on record is Rattus norvegicus. Nature of the assay: Selectivity index, ratio of IC50 for rat kidney ALR1 to IC50 for rat eye lens ALR2.
Assay [3] in a line: Inhibition of rat eye lens ALR2 using DL-glyceraldehyde by measuring NADPH consumption by spectrophotometric analysis. It is filed as tissue-based.

In general, IC50 refers to the midpoint of a concentration-inhibition curve. Read a high IC50 as a need for much substance. One may read the pIC50 as the negative decadic logarithm of the IC50, by convention in mol/L. Low readings indicate a high IC50, high ones a low IC50.

Chain of Aldo-keto reductase family 1 member A1 (P51635 whole entry, looked up): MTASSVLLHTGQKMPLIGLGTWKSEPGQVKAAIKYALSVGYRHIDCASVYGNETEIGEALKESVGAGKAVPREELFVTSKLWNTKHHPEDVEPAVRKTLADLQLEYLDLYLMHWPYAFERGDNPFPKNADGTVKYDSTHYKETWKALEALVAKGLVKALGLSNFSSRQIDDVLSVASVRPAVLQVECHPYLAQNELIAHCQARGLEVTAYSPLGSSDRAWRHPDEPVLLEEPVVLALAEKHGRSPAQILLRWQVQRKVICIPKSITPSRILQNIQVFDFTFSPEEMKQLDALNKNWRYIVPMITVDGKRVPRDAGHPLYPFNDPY

`O=C(CN1C(=O)S/C(=C\c2ccc(O)cc2)C1=O)Nc1ccccc1O` registered a concentration for half-maximal inhibition (IC50) in assay [1] of 950 nM.
`O=C1/C(=C/c2ccc(O)cc2)SC(=S)N1/N=C/c1ccc(F)cc1`: the IC50 in assay [2] worked out at 228 nM; in assay [3], 27 nM. Also, the Ratio IC50 in the assay filed under Rattus norvegicus came to 8. This compound yielded a pIC50 in assay [3] of 7.57.
With `COc1ccc(/C=N/N2C(=O)/C(=C/c3ccc(O)cc3)SC2=S)cc1`, the figures for the concentration for half-maximal inhibition (IC50) in assay [2] and in assay [3] were greater than 25000 nM and 2150 nM, respectively. In the assay filed under Rattus norvegicus, the Ratio IC50 was greater than 11. Moreover, in assay [3], the negative logarithm of the IC50 (pIC50) was determined as 5.67.
For `O=C1/C(=C/c2ccc(O)cc2)SC(=S)N1/N=C/c1ccccc1` the same measures were 21100 nM, 892 nM, 24 and 6.05.
In assay [3], `CC(/C=C1\SC(=S)N(CC(=O)O)C1=O)=C\c1ccccc1` [EPALRESTAT] returned an IC50 of 250 nM and a pIC50 of 6.6.
In assay [1], `COC(=O)CN1C(=O)S/C(=C\c2ccc(O)cc2)C1=O` yielded a 50% inhibitory concentration (IC50) of 6180 nM.
For the compound `O=C1/C(=C/c2ccc(O)cc2)SC(=S)N1/N=C/c1ccccc1Cl`, the IC50 turned out to be 1760 nM in assay [2] and 149 nM in assay [3]. Also, in the assay listed under Rattus norvegicus, the Ratio IC50 is 12. Further, the pIC50 in assay [3] is reported as 6.83.
In the same order, the values of `O=C1/C(=C/c2ccc(O)cc2)SC(=S)N1/N=C/c1ccc(O)cc1` are 116 nM, 22 nM, 5 and 7.66.
In assay [1], `COc1ccc2nc(/N=C3\NC(=O)/C(=C/c4ccc(O)cc4)S3)sc2c1` registered an IC50 of 1300 nM.
In assay [1], `O=C(CN1C(=O)S/C(=C\c2ccc(O)cc2)C1=O)NO` returned an IC50 of 1790 nM.
Still for that read-out and setting: the same measure for `O=C1S/C(=C\c2ccc(O)cc2)C(=O)N1CC(=O)C(F)(F)F`: 3000 nM.
The compound `Cc1ccccc1/C=N/N1C(=O)/C(=C/c2ccc(O)cc2)SC1=S` showed an IC50 in assay [2] of 635 nM. Moreover, the Ratio IC50 in the assay listed under Rattus norvegicus turned out to be 12. Also, in assay [3], half-maximal inhibition (IC50) was put at 53 nM and the pIC50 worked out at 7.28.

The values are drawn from ChEMBL document CHEMBL5352451, “Novel rhodanine based inhibitors of aldose reductase of non-acidic nature with p-hydroxybenzylidene functional group” (Eur J Med Chem, 2023).
